Data on two molecules can be found in article PMC4821163 (Organic letters, 2016).

Each structure is given as a SMILES string. pIC50: −log10 of the molar value. Where only a bound is given, the exact number is not on record here.

In one series the test system is MDA-MB-231. The series is classed as cell-based. Conditions: IC50 MCF-10A divided by IC50 MDA-MB-231.
The subject of another series is MCF7. The series is classed as cell-based. Particulars: IC50 MCF-10A divided by IC50 MCF7.
A further series relates to HeLa. The series is classed as cell-based. Conditions: for Selectivity index (SI) over MCF-10A cells: IC50 MCF-10A divided by IC50 HeLa.
The next series concerns U937. The series is classed as cell-based. Particulars: for Selectivity index (SI) over MCF-10A cells: IC50 MCF-10A divided by IC50 U937.
In a further series the test system is Jurkat. The series is classed as cell-based. Conditions: for Selectivity index (SI) over MCF-10A cells: IC50 MCF-10A divided by IC50 Jurkat.
The test system of a further series is MCF-10A. The series is classed as cell-based. Conditions: for Selectivity index (SI), overall statement: tested cancer cell lines, MCF-10A as reference nontumor cell line.
Another series relates to NIH/3T3. The series is classed as cell-based. Conditions: read-out: Cell cytotoxicity IC50; NIH/3T3 nontumor cell line.
The next series relates to cancer cell lines. Conditions: several cancer cell lines; cited from earlier work.

The pIC50 is the negative decadic logarithm of the IC50, by convention in mol/L. For `C/C=C(\C)C(=O)O[C@@H]1[C@@H](O)[C@@H]2O[C@H]3[C@H](O[C@@H](CCCCC)CCCCCCC(=O)CCC(=O)OC[C@@H](O2)[C@H]1OC(=O)/C=C/c1ccccc1)O[C@H](C)[C@H](OC(C)=O)[C@@H]3O` [ipomoeassin F], the “Selectivity index (SI) over MCF-10A cells” value with MDA-MB-231 amounted to 0.83; in the series with MCF7, 0.12; with HeLa, 0.33; with U937, 1; in the series on Jurkat, 0.89. For the same molecule, the negative-log IC50 (pIC50) was 7.79 with HeLa (read-out: Cell cytotoxicity IC50, HeLa cells); 8.27 in the series on U937 (read-out: Cell cytotoxicity IC50, U937 cells); 8.21 in the series on Jurkat (read-out: Cell cytotoxicity IC50, Jurkat cells); 8.27 in the series on MCF-10A (read-out: Cell cytotoxicity IC50, MCF-10A nontumor cell line); 7.77 in the series with NIH/3T3. Also, the “Selectivity index (SI), overall statement” value in the series on MCF-10A is recorded as less than 1. In the series with cancer cell lines, the “IC50 values against cancer cell growth, in words” value is on record as “single-digit nanomolar range”.
In the case of `CC(=O)O[C@H]1C(=O)[C@@]2(C)[C@H]([C@H](OC(=O)c3ccccc3)[C@]3(O)C[C@H](OC(=O)[C@H](O)[C@@H](NC(=O)c4ccccc4)c4ccccc4)C(C)=C1C3(C)C)[C@]1(OC(C)=O)CO[C@@H]1C[C@@H]2O` [paclitaxel], the “Selectivity index (SI) over MCF-10A cells” value came out at 8.04 with MDA-MB-231; 3.73 in the series with MCF7; 25.6 with HeLa; 15.2 in the series on U937; 14.6 in the series with Jurkat. Besides, in the series on MCF-10A, the “Selectivity index (SI), overall statement” value was “good selectivity in general”.
